Tests used:
[1] = biological target: T1, Alk (Homo sapiens, UniProt Q9UM73); assay: Tyrosine kinase assay (Kinase-Glo or AlphaScreen), Alk; conditions: biochemical tyrosine kinase assay
T1 construct: 6×His- or GST-tagged kinase domain fragments of the corresponding RTKs expressed in baculovirus system; host or cells: baculovirus system
Outline: (§1)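 Inhibition measured on recombinant RTK kinase domains phosphorylating poly(Glu-Tyr) at 10 μM ATP, either by ATP depletion luminescence (37 °C, 60 min) or by PT66/PT100 AlphaScreen with biotinylated substrate (RT, 30 min plus 60 min bead step). For Alk, InsR and Jak2, enzyme titrated to ≤30% ATP consumption; IC50 from nonlinear regression.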

[2] = biological target: T2, IGF1 receptor (Homo sapiens, UniProt P08069); assay: ELISA-based assay of IGF1 receptor autophosphorylation inhibition in cells; assay type: cell-based; conditions: IGF1R phosphorylation inhibition in MCF7 cells
T2 construct: MCF7 human breast cancer cells expressing IGF1 receptor; endogenous in cells; host or cells: MCF7 human breast cancer cells
T2 sequence (P08069 741-1367 limits assumed): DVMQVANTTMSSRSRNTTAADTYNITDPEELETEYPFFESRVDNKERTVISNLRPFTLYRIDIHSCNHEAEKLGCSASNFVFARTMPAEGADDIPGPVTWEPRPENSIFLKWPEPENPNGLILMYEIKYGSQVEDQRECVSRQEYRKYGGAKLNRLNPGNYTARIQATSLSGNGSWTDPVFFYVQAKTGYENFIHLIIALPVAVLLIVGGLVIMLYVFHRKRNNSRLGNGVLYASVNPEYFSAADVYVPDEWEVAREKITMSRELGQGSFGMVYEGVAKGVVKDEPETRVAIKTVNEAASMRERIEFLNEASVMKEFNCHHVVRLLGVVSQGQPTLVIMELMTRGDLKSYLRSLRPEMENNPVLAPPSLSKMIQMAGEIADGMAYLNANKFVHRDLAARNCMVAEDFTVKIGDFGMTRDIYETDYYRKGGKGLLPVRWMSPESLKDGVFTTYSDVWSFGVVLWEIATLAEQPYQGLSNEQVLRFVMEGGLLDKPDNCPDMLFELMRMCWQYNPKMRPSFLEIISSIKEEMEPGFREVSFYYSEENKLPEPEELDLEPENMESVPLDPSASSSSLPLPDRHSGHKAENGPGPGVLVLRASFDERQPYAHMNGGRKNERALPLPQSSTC
T2 sequence (P08069 31-736 partner limits assumed): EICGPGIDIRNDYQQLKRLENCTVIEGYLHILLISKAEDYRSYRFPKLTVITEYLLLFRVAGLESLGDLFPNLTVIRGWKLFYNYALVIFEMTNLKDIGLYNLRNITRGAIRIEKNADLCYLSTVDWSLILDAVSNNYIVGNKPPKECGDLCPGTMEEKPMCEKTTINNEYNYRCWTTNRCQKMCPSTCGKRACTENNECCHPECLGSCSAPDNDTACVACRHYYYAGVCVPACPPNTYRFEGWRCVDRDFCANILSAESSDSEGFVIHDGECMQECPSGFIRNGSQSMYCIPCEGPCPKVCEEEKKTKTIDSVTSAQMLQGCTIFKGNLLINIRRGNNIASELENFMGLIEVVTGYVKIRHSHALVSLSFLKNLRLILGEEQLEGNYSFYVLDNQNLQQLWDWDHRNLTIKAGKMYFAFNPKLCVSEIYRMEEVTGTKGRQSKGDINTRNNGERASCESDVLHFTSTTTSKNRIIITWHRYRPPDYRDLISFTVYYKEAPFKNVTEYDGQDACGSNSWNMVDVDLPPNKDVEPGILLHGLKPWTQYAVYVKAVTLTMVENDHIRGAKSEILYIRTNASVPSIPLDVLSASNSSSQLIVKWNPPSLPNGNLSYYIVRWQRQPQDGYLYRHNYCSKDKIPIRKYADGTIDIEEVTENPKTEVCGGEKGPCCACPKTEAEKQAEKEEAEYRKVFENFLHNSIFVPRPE
Protocol: In another embodiment, compounds that interact with the IGF1R kinase domain are tested in a cell-based assay system. In accordance with this embodiment, cells expressing a full-length IGF1 receptor or a fragment thereof containing the IGF1R kinase domain, are contacted with a candidate or a control compound and the ability of the compound to block tyrosine kinase activity of IGF1R within a cell is determined. This assay may be used to screen a single compound or a large library of candidate compounds. Typically, the cells or cell lines are of mammalian origin and they can express the IGF1 receptor, or functional IGF1R kinase domain fragment, endogenously or be genetically engineered to express the IGF1R, or functional fragment thereof. The ability of the candidate compound to inhibit IGF1R kinase activity can be determined by methods known to those skilled in the art. For example, the inhibition can be determined by ELISA-type assay or Western blot analysis with cell lysates or immunoprecipitated IGF1R receptor using various anti-IGF1R and anti-phosphotyrosine antibodies.
In general, cells expressing IGF1R are treated with modulators (i.e., inhibitors or activators) of IGF1R kinase activity and cell lysates are produced from these treated cells. IGF1Rs are isolated from the lysate by immunoprecipitation and analyzed for phosphotyrosine content. Alternatively, or in addition, cellular protein substrates phosphorylated by IGFR may be immunoprecipitated from the lysates and their degree of tyrosine phosphorylation determined.
MCF7 human breast cancer cells expressing IGF1 receptor or an engineered […] fibroblast cell line NIH 3T3 overexpressing full-length IGF1R are an exemplary cellular models in which to perform such assays. Such cells may be maintained in DMEM medium supplemented with 10% fetal bovine serum (FBS), 4% L-glutamine, 1% antibiotic solution (penicillin-Streptomycin) in a humidified atmosphere of 95% air and 5% CO2 at 37° C. Confluent cells in T175 cell culture flasks are incubated overnight with serum-free DMEM medium. After the serum starvation step, the cells are detached and split into a standard 96-well cell culture plate (one T175 flask per plate, 30 μl of cell suspension per plate well). Tested inhibitors from their 10 mM stock solutions in DMSO are subsequently added at various concentrations in serum-free DMEM medium for 1 hour incubation at 37° C. in CO2-incubator; total DMSO concentration in both treated and control wells is adjusted to 1%. Cells are then stimulated for 10 minutes with 100 nM IGF-1 added in 30 μl DMEM. After treatment, cells are lysed by addition of 30 μl of 4× lysis buffer (phosphate-buffered saline (PBS), 2% Triton-X100, 1 mM phenylmethylsulphonyl fluoride (PMSF) and 8 mM activated orthovanadate), mixing and incubation for 15 minute at room temperature. To prepare assay plates, 96-well ELISA Plates (Pierce Chemical, Reacti-bind plates) were coated by goat-anti-rabbit Fc antiserum by adding 0.25 μg antiserum per well in 0.2M sodium bicarbonate buffer per well and incubating overnight at 4° C. After incubation, the plate is washed three times by PBS with 0.02% Tween-20, supplied with 25 ng/50 μl per well of anti-IGF1R antibody (C-20, Santa Cruz Biotechnology) and incubated for several hours to overnight. Prior to the addition of the prepared cellular lysates, the antibody solution is aspirated, wells washed with PBS and supplied with 25 μl per well of Starting Block buffer (Pierce Chemical).
To measure tyrosine phosphorylation of the beta-subunits of the IGF1R, 25-50 μl of the lysates are transferred from the stimulation plate to the wells of the prepared assay plate and incubated overnight at 4° C. The wells are washed with PBS with 0.02% Tween-20, incubated with 50 μl of 1:3000 dilution of anti-phosphotyrosine 4G10-HRP antibody conjugate (Upstate Biotechnology) for 2 hours at room temperature and washed again. […]

[3] = biological target: T3, Jak2 (Homo sapiens, UniProt O60674); assay: Tyrosine kinase assay (Kinase-Glo or AlphaScreen), Jak2; conditions: biochemical tyrosine kinase assay
T3 construct: 6×His- or GST-tagged kinase domain fragments of the corresponding RTKs expressed in baculovirus system; host or cells: baculovirus system
T3 sequence (O60674 849-1124 limits assumed, species assumed): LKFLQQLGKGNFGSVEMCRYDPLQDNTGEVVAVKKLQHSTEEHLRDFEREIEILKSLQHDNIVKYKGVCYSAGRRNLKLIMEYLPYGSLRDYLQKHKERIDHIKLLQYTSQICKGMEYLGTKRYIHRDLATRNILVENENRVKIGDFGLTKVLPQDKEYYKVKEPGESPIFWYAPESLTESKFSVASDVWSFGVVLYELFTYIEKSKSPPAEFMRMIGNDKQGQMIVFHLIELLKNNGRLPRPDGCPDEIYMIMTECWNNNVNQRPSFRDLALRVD
Outline: as §1

T1 sequence (Q9UM73 1116-1392 limits assumed, species assumed): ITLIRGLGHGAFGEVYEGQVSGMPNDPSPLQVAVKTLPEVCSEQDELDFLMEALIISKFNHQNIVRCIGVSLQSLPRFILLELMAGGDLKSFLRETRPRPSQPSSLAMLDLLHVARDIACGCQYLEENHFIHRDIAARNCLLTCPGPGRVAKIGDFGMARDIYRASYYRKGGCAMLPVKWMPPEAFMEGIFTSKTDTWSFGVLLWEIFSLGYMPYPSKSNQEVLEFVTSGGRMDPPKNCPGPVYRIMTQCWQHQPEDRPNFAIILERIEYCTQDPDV

SMILES	IC50 [1] [µM]	IC50 [2] [µM]	IC50 [3] [µM]
CN1CCC(N2C(=O)c3cc4nc(-c5c(NC[C@@H](O)c6cccc(Cl)c6)cc[nH]c5=O)[nH]c4cc3C2=O)CC1 [compound 1]	0.5 to 5	< 0.5	0.5 to 5
O=C1c2cc3nc(-c4c(NC[C@@H](O)c5cccc(Cl)c5)cc[nH]c4=O)[nH]c3cc2C(=O)N1C[C@@H]1CCCO1 [compound 29]	> 15	> 15	> 15
Cc1ccc(OC[C@H](O)CNc2cc[nH]c(=O)c2-c2nc3cc4c(cc3[nH]2)C(=O)N(C2CCN(C)CC2)C4=O)c(C)c1 [compound 59]	0.5 to 5	0.5 to 5	0.5 to 5
COc1cccc(OCC(O)CNc2cc[nH]c(=O)c2-c2nc3cc4c(cc3[nH]2)C(=O)N(C2CCN(C)CC2)C4=O)c1 (stereo not drawn) [compound 6]	0.5 to 5	0.5 to 5	0.5 to 5
O=C1c2cc3nc(-c4c(NC[C@@H](O)c5cccc(Cl)c5)cc[nH]c4=O)[nH]c3cc2C(=O)N1[C@@H]1CN2CCC1CC2 [compound 33]	0.5 to 5	> 15	0.5 to 5
Cc1ncsc1CCN1C(=O)c2cc3nc(-c4c(NC[C@@H](O)c5cccc(Cl)c5)cc[nH]c4=O)[nH]c3cc2C1=O [compound 32]	> 15	5 to 15	> 15
Cc1ccc(OCC(O)CNc2cc[nH]c(=O)c2-c2nc3cc4c(cc3[nH]2)C(=O)N(CC2CCN(CCO)CC2)C4=O)c(C)c1 (stereo not drawn) [compound 37]	5 to 15	5 to 15	0.5 to 5
Cc1ccc(OC[C@@H](O)CNc2cc[nH]c(=O)c2-c2nc3cc4c(cc3[nH]2)C(=O)N(C2CCN(C)CC2)C4=O)c(C)c1 [compound 64]	5 to 15	> 15	0.5 to 5
O=C1c2cc3nc(-c4c(NC[C@@H](O)c5cccc(Cl)c5)cc[nH]c4=O)[nH]c3cc2C(=O)N1CCc1ccncc1 [compound 28]	5 to 15	> 15	5 to 15
Cc1c(Cl)cccc1OC[C@H](O)CNc1cc[nH]c(=O)c1-c1nc2cc3c(cc2[nH]1)C(=O)N(C1CCN(C)CC1)C3=O [compound 94]	0.5 to 5	0.5 to 5	0.5 to 5
CN1CCC(N2C(=O)c3cc4nc(-c5c(NC[C@@H](O)COc6cccc(-c7ccccc7)c6)cc[nH]c5=O)[nH]c4cc3C2=O)CC1 [compound 89]	0.5 to 5	0.5 to 5	0.5 to 5
CC(C)(CO)CN1C(=O)c2cc3nc(-c4c(NC[C@@H](O)c5cccc(Cl)c5)cc[nH]c4=O)[nH]c3cc2C1=O [compound 26]	> 15	5 to 15	0.5 to 5
C[C@H](O)CN1C(=O)c2cc3nc(-c4c(NC[C@@H](O)c5cccc(Cl)c5)cc[nH]c4=O)[nH]c3cc2C1=O [compound 31]	> 15	5 to 15	5 to 15
CN1CCC(N2C(=O)c3cc4nc(-c5c(NC[C@@H](O)COc6cccc(OC(F)(F)C(F)F)c6)cc[nH]c5=O)[nH]c4cc3C2=O)CC1 [compound 91]	0.5 to 5	0.5 to 5	0.5 to 5
COc1ccc(OC[C@H](O)CNc2cc[nH]c(=O)c2-c2nc3cc4c(cc3[nH]2)C(=O)N(C2CCN(C)CC2)C4=O)c(OC)c1OC [compound 93]	> 15	0.5 to 5	> 15
CN1CCC(N2C(=O)c3cc4nc(-c5c(NC[C@@H](O)COc6ccc7ccccc7c6)cc[nH]c5=O)[nH]c4cc3C2=O)CC1 [compound 88]	0.5 to 5	0.5 to 5	0.5 to 5
CN1CCC(N2C(=O)c3cc4nc(-c5c(NC[C@@H](O)COc6cccc7ccccc67)cc[nH]c5=O)[nH]c4cc3C2=O)CC1 [compound 87]	0.5 to 5	0.5 to 5	0.5 to 5
O=C1c2cc3nc(-c4c(NC[C@@H](O)c5cccc(Cl)c5)cc[nH]c4=O)[nH]c3cc2C(=O)N1[C@H]1CN2CCC1CC2 [compound 34]	0.5 to 5	> 15	0.5 to 5

The next lines start with the values.

IC50 [1] [µM]	IC50 [2] [µM]	IC50 [3] [µM]	SMILES
0.5 to 5	5 to 15	0.5 to 5	CN1CCC(N2C(=O)c3cc4nc(-c5c(NC[C@@H](O)COc6c(F)ccc(Cl)c6F)cc[nH]c5=O)[nH]c4cc3C2=O)CC1 [compound 95]
0.5 to 5	5 to 15	0.5 to 5	Cc1ccc(OC[C@@H](O)CNc2cc[nH]c(=O)c2-c2nc3cc4c(cc3[nH]2)C(=O)N([C@@H]2CCN(C)C2)C4=O)c(C)c1 [compound 107]
5 to 15	> 15	0.5 to 5	Cc1ccc(OC[C@H](O)CNc2cc[nH]c(=O)c2-c2nc3cc4c(cc3[nH]2)C(=O)N(C2CCN(C)CC2)C4=O)cc1Cl [compound 99]
> 15	5 to 15	5 to 15	CN1CCC(N2C(=O)c3cc4nc(-c5c(NC[C@@H](O)COc6cccc(Cl)c6F)cc[nH]c5=O)[nH]c4cc3C2=O)CC1 [compound 96]
0.5 to 5	5 to 15	0.5 to 5	Cc1ccc(OC[C@H](O)CNc2cc[nH]c(=O)c2-c2nc3c(C)c4c(cc3[nH]2)C(=O)N(C2CCN(C)CC2)C4=O)c(C)c1 [compound 110]
< 0.5	0.5 to 5	< 0.5	CCN1CCC(N2Cc3cc4nc(-c5c(NC[C@@H](O)COc6ccc(C)cc6C)cc[nH]c5=O)[nH]c4cc3C2=O)CC1 [compound 144]
0.5 to 5	5 to 15	0.5 to 5	Cc1cc(C)c(OC[C@H](O)CNc2cc[nH]c(=O)c2-c2nc3cc4c(cc3[nH]2)C(=O)N(C2CCN(C)CC2)C4=O)cc1Cl [compound 108]
0.5 to 5	5 to 15	0.5 to 5	Cc1ccc(OC[C@@H](O)CNc2cc[nH]c(=O)c2-c2nc3cc4c(cc3[nH]2)C(=O)N([C@H]2CCN(C)C2)C4=O)c(C)c1 [compound 106]
0.5 to 5	0.5 to 5	0.5 to 5	Cc1ccc(OC[C@H](O)CNc2cc[nH]c(=O)c2-c2nc3c(C)c4c(cc3[nH]2)C(=O)N(C2CCN(C)CC2)C4)c(C)c1 [compound 139]
< 0.5	< 0.5	0.5 to 5	CCN1CCC(N2C(=O)c3cc4nc(-c5c(NC[C@@H](O)COc6ccc(C)cc6C)cc[nH]c5=O)[nH]c4cc3C2=O)CC1 [compound 143]
5 to 15	0.5 to 5	0.5 to 5	CN1CCC(N2C(=O)c3cc4nc(-c5c(NC[C@@H](O)COc6cccc(C(F)(F)F)c6)cc[nH]c5=O)[nH]c4cc3C2=O)CC1 [compound 97]
0.5 to 5	0.5 to 5	< 0.5	Cc1ccc(OC[C@H](O)CNc2cc[nH]c(=O)c2-c2nc3cc4c(c(C)c3[nH]2)CN(C2CCN(C)CC2)C4=O)c(C)c1 [compound 132]
0.5 to 5	> 15	0.5 to 5	Cc1ccc(Cl)c(C)c1OC[C@H](O)CNc1cc[nH]c(=O)c1-c1nc2cc3c(cc2[nH]1)C(=O)N(C1CCN(C)CC1)C3=O [compound 111]
0.5 to 5	0.5 to 5	< 0.5	Cc1ccc(OC[C@H](O)CNc2cc[nH]c(=O)c2-c2nc3c(C)c4c(cc3[nH]2)CN(C2CCN(C)CC2)C4=O)c(C)c1 [compound 140]

Source: patent US8063225B2, “Tricyclic compound derivatives useful in the treatment of neoplastic diseases, inflammatory disorders and immunomodulatory disorders” (Chembridge Corporation, priority 2006, dated 2011)
